The values that follow come from PMC11624193, “Coupling cellular drug-target engagement to downstream pharmacology with CeTEAM” (Nature Communications, 2024).

By IC50 is commonly meant the concentration that gives 50% inhibition. A high value points to lower potency.

The target of assay [1] is T1, NUDT15 (Homo sapiens, UniProt Q9NV35).
T1 construct: full-length wild-type
T1 sequence (Q9NV35 1-164): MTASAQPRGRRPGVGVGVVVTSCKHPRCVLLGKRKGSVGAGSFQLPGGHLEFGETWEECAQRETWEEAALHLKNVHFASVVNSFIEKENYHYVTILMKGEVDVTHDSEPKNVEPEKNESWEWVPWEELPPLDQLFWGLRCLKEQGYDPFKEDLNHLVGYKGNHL
The assay is described as follows: […] Å co-crystal structure; also enzyme-coupled malachite green inhibition assay and DSF. Format: biochemical.

The target of assay [2] is T2, NUDT15 (Homo sapiens, UniProt Q9NV35, R139C).
T2 construct: full-length R139C
T2 sequence (Q9NV35 1-164 R139C): T1 sequence (Q9NV35 1-164) with R139C
In words: DSF thermal shift of purified protein with […] compound; HA-R139C stabilization in cells. Format: binding. Particulars: read-out: DSF thermal shift of purified protein with 50 μM compound; HA-R139C stabilizatio.

Assay [3] addresses T1, NUDT15. The assay is described as follows: enzyme-coupled malachite green assay with dGTP as substrate. The format is biochemical.

The structures appear in SMILES notation. Numbering of substitutions follows the chain as printed.

Compound `Nc1nc(S)c2ncn(C3CCCCC3)c2n1` [NSC56456, 2-amino-9-cyclohexyl-3H-purine-6-thione] yielded a 50% inhibitory concentration (IC50) on NUDT15 [1] of 383 nM. Moreover, the ΔTm at 50 µM on NUDT15 [2] was found to be 7 °C. As for `CC(C)(c1ccccc1)n1cnc2c(=S)nc(N)[nH]c21` [TH8234, 2-amino-9-(2-phenylpropan-2-yl)-3H-purine-6(9H)-thione], the half-maximal inhibitory concentration (IC50) at NUDT15 [3] was determined as 375 nM.
